According to US11000033B2, “Ketone or oxime compound, and herbicide” (NISSAN CHEMICAL CORPORATION, priority 2014, dated 2021):

Tests used:
Type in all cases: in vivo
[1] = test system: Monochoria vaginalis; assay: Test Example 1: herbicidal activity, application before weed generation in submerged conditions (symbol C); conditions: application herbicide amount 320 g/ha
How it was run: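 Scores run 0 to 5 by herbicidal ratio, with 5 meaning 90% or more and 0 meaning 5% or lower, read 3 weeks after treatment. Compound was applied as a diluted emulsion to the water surface of submerged alluvial-soil pots on the day weed seeds were sown.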

[2] = test system: transplanted rice plant; assay: Test Example 1: effect on crop, application before weed generation in submerged conditions (symbol a); conditions: application herbicide amount 320 g/ha
How it was run: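 Alluvial soil pots flooded to 4 cm water, sown with Echinochloa oryzacola, Scirpus juncoides and Monochoria vaginalis, then transplanted with 2.5 leaf stage rice seedlings; pre-emergence application. Greenhouse 25° C. to 30° C.; scored 0–5 by herbicidal ratio 3 weeks after application.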

[3] = test system: Echinochloa oryzacola Vasing.; assay: Test Example 2: herbicidal activity, application during weed generation in submerged conditions (symbol A); conditions: Table 23; application herbicide amount 320 g/ha; grade 0-5 by criteria of Test Example 1
How it was run: (§1)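 Seeds sown in flooded alluvial soil (4 cm water) were grown in a 25-30° C greenhouse. At the one- to two-leaf stage, diluted emulsion of compound was applied to the water surface at a predetermined rate. Effect was scored 3 weeks later.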

[4] = test system: Scirpus juncoides; assay: Test Example 2: herbicidal activity, application during weed generation in submerged conditions (symbol B); conditions: Table 23; application herbicide amount 320 g/ha; grade 0-5 by criteria of Test Example 1
How it was run: as §1

[5] = test system: Echinochloa crus-galli var. crus-galli; assay: Test Example 3: herbicidal effect by foliage application, Wagner pot (symbol H); conditions: application herbicide amount 320 g/ha
How it was run: (§2)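 Plants sown in submerged alluvial soil (water depth 0.1–0.5 cm) in a 25–30 °C greenhouse and grown 14 days. An emulsion of the compound diluted in water to a set herbicide amount was sprayed uniformly on foliage. Effect on each plant scored 3 weeks after application.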

[6] = test system: Leptochloa chinensis; assay: Test Example 3: herbicidal effect by foliage application, Wagner pot (symbol D); conditions: application herbicide amount 320 g/ha
How it was run: as §2

[7] = test system: Cyperus difformis; assay: Test Example 3: herbicidal effect by foliage application, Wagner pot (symbol E); conditions: application herbicide amount 320 g/ha
How it was run: as §2

[8] = test system: Abutilon theophrasti; assay: Test Example 4: herbicidal effect by soil treatment (symbol M); conditions: application herbicide amount 320 g/ha
How it was run: (§3)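 Seeds were sown in sterilized diluvial soil, covered with about 1.5 cm of soil, and the soil surface was sprayed with a water-diluted emulsion of the compound at a predetermined rate. Plants grew in a greenhouse at 25° C. to 30° C.; effects were scored visually 3 weeks after application.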

[9] = test system: Stellaria media; assay: Test Example 4: herbicidal effect by soil treatment (symbol P); conditions: application herbicide amount 320 g/ha
How it was run: as §3

[10] = test system: corn; assay: Test Example 4: effect on crop by soil treatment (symbol c); conditions: application herbicide amount 320 g/ha
How it was run: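 Grown at 25° C. to 30° C. in a greenhouse, the crops came from seed sown spot-wise in sterilized diluvial soil under roughly 1.5 cm of covering soil.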

[11] = test system: soybean; assay: Test Example 4: effect on crop by soil treatment (symbol d); conditions: application herbicide amount 320 g/ha
How it was run: (§4)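 The test used sterilized diluvial soil. Seed was set down in spots and overlaid with about 1.5 cm of soil before growth in a greenhouse kept at 25° C. to 30° C.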

[12] = test system: wheat; assay: Test Example 4: effect on crop by soil treatment (symbol e); conditions: application herbicide amount 320 g/ha
How it was run: as §4

[13] = test system: corn; assay: Test Example 5: effect on crop by foliage application, plastic box (symbol c); conditions: 320 g/ha, 3 weeks after application
How it was run: (§5)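 Crop and weed seeds sown in spots in sterilized diluvial soil in plastic boxes and covered with about 1.5 cm soil. Plants raised in a greenhouse at 25° C. to 30° C. for foliar application.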

[14] = test system: soybean; assay: Test Example 5: effect on crop by foliage application, plastic box (symbol d); conditions: 320 g/ha, 3 weeks after application
How it was run: as §5

[15] = test system: rice plant; assay: Test Example 5: effect on crop by foliage application, plastic box (symbol b); conditions: 320 g/ha, 3 weeks after application
How it was run: as §5

[16] = test system: beet; assay: Test Example 5: effect on crop by foliage application, plastic box (symbol f); conditions: 320 g/ha, 3 weeks after application
How it was run: as §5

SMILES	Herbicidal effect grade, C: Monochoria vaginalis [1]	Effect grade on crop, a: transplanted rice plant [2]	Herbicidal effect grade, A: Echinochloa oryzacola Vasing. [3]	Herbicidal effect grade, B: Scirpus juncoides [4]	herbicidal effect on H (Echinochloa crus-galli var. crus-galli), grade 0-5 [5]	herbicidal effect on D (Leptochloa chinensis), grade 0-5 [6]	herbicidal effect on E, grade 0-5 [7]	Herbicidal effect grade, M: Abutilon theophrasti [8]	Herbicidal effect grade, P: Stellaria media [9]	Effect on crop grade, c: corn [10]	Effect on crop grade, d: soybean [11]	Effect on crop grade, e: wheat [12]	c: corn, effect on crop (criteria of Test Example 1) [13]	d: soybean, effect on crop (criteria of Test Example 1) [14]	b: directly sowed rice plant, effect on crop (criteria of Test Example 1) [15]	f: beet, effect on crop (criteria of Test Example 1) [16]	M: Abutilon theophrasti, herbicidal effect grade [8]	P: Stellaria media, herbicidal effect grade [9]	c: corn, effect on crop grade [10]	d: soybean, effect on crop grade [11]	further results
CON=C(C)CC1CC(OC(=O)COc2ccccc2)=C(c2c(C)cc(-c3ccccc3)cc2OC)C1=O (centres unmarked) [6-100]	5 (Herbicidal ratio of 90% or more (almost completely withered))	5 (Herbicidal ratio of 90% or more (almost completely withered))	5 (Herbicidal ratio of 90% or more (almost completely withered))	5 (Herbicidal ratio of 90% or more (almost completely withered))	5 (Herbicidal ratio of 90% or more (almost completely withered))	5 (Herbicidal ratio of 90% or more (almost completely withered))	5 (Herbicidal ratio of 90% or more (almost completely withered))	4 (Herbicidal ratio of 70% or higher and lower than 90%)	4 (Herbicidal ratio of 70% or higher and lower than 90%)	4 (Herbicidal ratio of 70% or higher and lower than 90%)	0 (Herbicidal ratio of 5% or lower (almost no effect))	3 (Herbicidal ratio of 40% or higher and lower than 70%)	5 (Herbicidal ratio of 90% or more (almost completely withered))	3 (Herbicidal ratio of 40% or higher and lower than 70%)	5 (Herbicidal ratio of 90% or more (almost completely withered))	0 (Herbicidal ratio of 5% or lower (almost no effect))					
CC(=O)CC1CC(O)=C(c2c(C)cc(OCc3ccccc3)cc2C)C1=O (centres unmarked) [7-018]	0 (Herbicidal ratio of 5% or lower (almost no effect))	2 (Herbicidal ratio of 20% or higher and lower than 40%)	1 (Herbicidal ratio of 5% or higher and lower than 20%)	0 (Herbicidal ratio of 5% or lower (almost no effect))	3 (Herbicidal ratio of 40% or higher and lower than 70%)	5 (Herbicidal ratio of 90% or more (almost completely withered))	3 (Herbicidal ratio of 40% or higher and lower than 70%)	0 (Herbicidal ratio of 5% or lower (almost no effect))	0 (Herbicidal ratio of 5% or lower (almost no effect))	0 (Herbicidal ratio of 5% or lower (almost no effect))	0 (Herbicidal ratio of 5% or lower (almost no effect))	0 (Herbicidal ratio of 5% or lower (almost no effect))	1 (Herbicidal ratio of 5% or higher and lower than 20%)	0 (Herbicidal ratio of 5% or lower (almost no effect))	2 (Herbicidal ratio of 20% or higher and lower than 40%)	0 (Herbicidal ratio of 5% or lower (almost no effect))					
CON=C(C)CC1CC(O)=C(c2c(C)cc(-n3cccn3)cc2C)C1=O (centres unmarked) [6-073]	1 (Herbicidal ratio of 5% or higher and lower than 20%)	5 (Herbicidal ratio of 90% or more (almost completely withered))	4 (Herbicidal ratio of 70% or higher and lower than 90%)	2 (Herbicidal ratio of 20% or higher and lower than 40%)	5 (Herbicidal ratio of 90% or more (almost completely withered))	5 (Herbicidal ratio of 90% or more (almost completely withered))	5 (Herbicidal ratio of 90% or more (almost completely withered))						4 (Herbicidal ratio of 70% or higher and lower than 90%)	0 (Herbicidal ratio of 5% or lower (almost no effect))	5 (Herbicidal ratio of 90% or more (almost completely withered))	0 (Herbicidal ratio of 5% or lower (almost no effect))	0 (Herbicidal ratio of 5% or lower (almost no effect))	0 (Herbicidal ratio of 5% or lower (almost no effect))	3 (Herbicidal ratio of 40% or higher and lower than 70%)	0 (Herbicidal ratio of 5% or lower (almost no effect))	e: wheat, effect on crop grade [12]: 2 (Herbicidal ratio of 20% or higher and lower than 40%)
CON=C(C)CC1CC(OCOC(=O)c2ccccc2)=C(c2c(C)cc(-c3ccc(Cl)cc3)cc2C)C1=O (centres unmarked) [6-083]	4 (Herbicidal ratio of 70% or higher and lower than 90%)	5 (Herbicidal ratio of 90% or more (almost completely withered))	5 (Herbicidal ratio of 90% or more (almost completely withered))	3 (Herbicidal ratio of 40% or higher and lower than 70%)	5 (Herbicidal ratio of 90% or more (almost completely withered))	5 (Herbicidal ratio of 90% or more (almost completely withered))	5 (Herbicidal ratio of 90% or more (almost completely withered))						5 (Herbicidal ratio of 90% or more (almost completely withered))	0 (Herbicidal ratio of 5% or lower (almost no effect))	5 (Herbicidal ratio of 90% or more (almost completely withered))	3 (Herbicidal ratio of 40% or higher and lower than 70%)	0 (Herbicidal ratio of 5% or lower (almost no effect))	0 (Herbicidal ratio of 5% or lower (almost no effect))	0 (Herbicidal ratio of 5% or lower (almost no effect))	0 (Herbicidal ratio of 5% or lower (almost no effect))	e: wheat, effect on crop grade [12]: 0 (Herbicidal ratio of 5% or lower (almost no effect))
CC(=O)CC1CC(O)=C(c2c(C)cc(OCC(F)(F)F)cc2C)C1=O (centres unmarked) [7-015]	2 (Herbicidal ratio of 20% or higher and lower than 40%)	5 (Herbicidal ratio of 90% or more (almost completely withered))	5 (Herbicidal ratio of 90% or more (almost completely withered))	0 (Herbicidal ratio of 5% or lower (almost no effect))	5 (Herbicidal ratio of 90% or more (almost completely withered))	5 (Herbicidal ratio of 90% or more (almost completely withered))	5 (Herbicidal ratio of 90% or more (almost completely withered))	0 (Herbicidal ratio of 5% or lower (almost no effect))	0 (Herbicidal ratio of 5% or lower (almost no effect))	5 (Herbicidal ratio of 90% or more (almost completely withered))	0 (Herbicidal ratio of 5% or lower (almost no effect))	4 (Herbicidal ratio of 70% or higher and lower than 90%)	5 (Herbicidal ratio of 90% or more (almost completely withered))	0 (Herbicidal ratio of 5% or lower (almost no effect))	5 (Herbicidal ratio of 90% or more (almost completely withered))	0 (Herbicidal ratio of 5% or lower (almost no effect))					
